# Values of other authors as cited in patent US8945534B2, “Controlled activation of the reuterin-production machinery of Lactobacillus” (priority 2008, dated 2015).
# Test system: Escherichia, Salmonella, Shigella, Proteus, Pseudomonas, Clostridium, Staphylococcus, Streptococcus, and Helicobacter pylori; several fungi and other …
# Conditions: species representing all bacterial genera tested thus far; U.S. Pat. Nos. 5,439,678 etc.
smiles,measurement,value
"O=CCCO [Reuterin, 3-hydroxypropionaldehyde]",inhibition of growth of microorganisms,capable of inhibiting growth
